# Laboratory results reported in patent US6355799B1, “Substituted benzene compounds, process for their preparation, and herbicidal and defoliant compositions containing them” (ISK Americas Incorporated, priority 1997, dated 2002).
# Experiments:
# Format in all cases: in vivo
# [1] = system: field corn (Zea mays L., var. Dekalb 535, CORN); assay: Pre-emerge test, crop safety; settings: crop damage rating 0-100, 14 days after application
# Outline: (§1)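 Compounds in acetone were track-sprayed at 187 l/ha, 15–1000 g ai/ha, onto sandy loam pots. Pre-emerge seeds were sown one day before spraying, with surface watering afterwards. Post-emerge plants were at the 2–3 leaf stage and sprayed with 0.25% v/v non-ionic surfactant. Injury was rated 0–100 at 14 days.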
# [2] = system: upland rice (Oryza sp., var. Tebonnet, RICE); assay: Pre-emerge test, crop safety; settings: crop damage rating 0-100, 14 days after application
# Outline: as §1
# [3] = system: redroot pigweed (Amaranthus retroflexus, AMARE); assay: Pre-emerge test, greenhouse herbicide activity screening; settings: phytotoxicity rating 0-100, 14 days after application
# Outline: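 Herbicidal damage is scored 0 (none) to 100 (complete plant death) two weeks after a simulated field spray. Rates span 15–1000 g ai/ha, delivered in acetone at 187 l/ha. For post-emergence treatments, plants have 2–3 leaves and the spray carries 0.25% v/v non-ionic surfactant.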
# [4] = system: sicklepod (Cassia obtusifolia, CASOB); assay: Post-emerge test, greenhouse herbicide activity screening; settings: post-emerge, 14 days after application, rating scale 0-100
# Outline: (§2)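 Plants grown in 10 cm pots of sandy loam mix received acetone-dissolved compounds through a moving flat-fan nozzle. Doses ranged from 15 to 1000 g ai/ha. Pre-emerge pots were seeded one day earlier, post-emerge pots 8–21 days earlier. Fourteen days on, each pot was graded 0–100 for damage.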
# [5] = system: johnsongrass (Sorghum halepense, SORHA); assay: as above; settings: post-emerge, 14 days after application, rating scale 0-100
# Outline: as §2
# [6] = system: lambsquarters (Chenopodium album, CHEAL); assay: as above; settings: post-emerge, 14 days after application, rating scale 0-100
# Outline: as §2
# [7] = system: ivyleaf morningglory (Ipomoea hederacea, IPOHE); assay: as above; settings: post-emerge, 14 days after application, rating scale 0-100
# Outline: as §2
# [8] = system: redroot pigweed (Amaranthus retroflexus, AMARE); assay: as above; settings: post-emerge, 14 days after application
# Outline: as §2
# [9] = system: green foxtail (Setaria viridis, SETVI); assay: as above; settings: post-emerge, 14 days after application, rating scale 0-100
# Outline: as §2
# [10] = system: velvetleaf (Abutilon theophrasti, ABUTH); assay: as above; settings: post-emerge, 14 days after application, rating scale 0-100
# Outline: as §2
# [11] = system: large crabgrass (Digitaria sanguinalis, DIGSA); assay: as above; settings: post-emerge, 14 days after application, rating scale 0-100
# Outline: as §2
# [12] = system: field corn (Zea mays L., var. Dekalb 535, CORN); assay: Post-emerge test, crop safety; settings: post-emerge, 14 days after application, rating scale 0-100
# Outline: as §1
# [13] = system: upland rice (Oryza sp., var. Tebonnet, RICE); assay: Post-emerge test, crop safety; settings: post-emerge, 14 days after application, rating scale 0-100
# Outline: as §1
# [14] = system: sicklepod (Cassia obtusifolia, CASOB); assay: Pre-emerge test, greenhouse herbicide activity screening; settings: phytotoxicity rating 0-100, 14 days after application
# Outline: as §1
# [15] = system: johnsongrass (Sorghum halepense, SORHA); assay: as above; settings: phytotoxicity rating 0-100, 14 days after application
# Outline: as §1
# [16] = system: barnyardgrass (Echinochloa crus-galli, ECHCG); assay: as above; settings: phytotoxicity rating 0-100, 14 days after application
# Outline: as §1
# [17] = system: lambsquarters (Chenopodium album, CHEAL); assay: as above; settings: phytotoxicity rating 0-100, 14 days after application
# Outline: as §1
# [18] = system: ivyleaf morningglory (Ipomoea hederacea, IPOHE); assay: as above; settings: phytotoxicity rating 0-100, 14 days after application
# Outline: as §1
# [19] = system: green foxtail (Setaria viridis, SETVI); assay: as above; settings: phytotoxicity rating 0-100, 14 days after application
# Outline: as §1
# [20] = system: velvetleaf (Abutilon theophrasti, ABUTH); assay: as above; settings: phytotoxicity rating 0-100, 14 days after application
# Outline: as §1
# [21] = system: large crabgrass (Digitaria sanguinalis, DIGSA); assay: as above; settings: phytotoxicity rating 0-100, 14 days after application
# Outline: as §1
smiles,measurement,setting,value
COc1c(Cl)cc(F)c(-n2c(=O)cc(C(F)(F)F)n(C)c2=O)c1NC(=O)OCc1c(Cl)cccc1Cl [4-24],Pre-emerge Herbicidal Activity CORN,[1]; 63 g ai/ha,0
same,Pre-emerge Herbicidal Activity CORN,[1]; 250 g ai/ha,5
same,Pre-emerge Herbicidal Activity RICE,[2]; 63 g ai/ha,10
same,Pre-emerge Herbicidal Activity RICE,[2]; 250 g ai/ha,50
same,Pre-emerge Herbicidal Activity AMARE,[3]; 63 g ai/ha,100
same,Pre-emerge Herbicidal Activity AMARE,[3]; 250 g ai/ha,100
same,phytotoxicity rating CASOB,[4]; 63 g ai/ha,70
same,phytotoxicity rating CASOB,[4]; 250 g ai/ha,100
same,phytotoxicity rating SORHA,[5]; 63 g ai/ha,40
same,phytotoxicity rating SORHA,[5]; 250 g ai/ha,60
same,phytotoxicity rating CHEAL,[6]; 63 g ai/ha,100
same,phytotoxicity rating CHEAL,[6]; 250 g ai/ha,100
same,phytotoxicity rating IPOHE,[7]; 63 g ai/ha,100
same,phytotoxicity rating IPOHE,[7]; 250 g ai/ha,100
same,phytotoxicity rating AMARE,"[8]; 63 g ai/ha, rating scale 0-100 (0 no damage, 100 complete death)",100
same,phytotoxicity rating AMARE,"[8]; 250 g ai/ha, rating scale 0-100",100
same,phytotoxicity rating SETVI,[9]; 63 g ai/ha,50
same,phytotoxicity rating SETVI,[9]; 250 g ai/ha,80
same,phytotoxicity rating ABUTH,[10]; 63 g ai/ha,100
same,phytotoxicity rating ABUTH,[10]; 250 g ai/ha,100
same,phytotoxicity rating DIGSA,[11]; 63 g ai/ha,40
same,phytotoxicity rating DIGSA,[11]; 250 g ai/ha,50
same,phytotoxicity rating CORN (crop damage),[12]; 63 g ai/ha,35
same,phytotoxicity rating CORN (crop damage),[12]; 250 g ai/ha,70
same,phytotoxicity rating RICE (crop damage),[13]; 63 g ai/ha,20
same,phytotoxicity rating RICE (crop damage),[13]; 250 g ai/ha,45
same,Pre-emerge Herbicidal Activity CASOB,[14]; 63 g ai/ha,0
same,Pre-emerge Herbicidal Activity CASOB,[14]; 250 g ai/ha,80
same,Pre-emerge Herbicidal Activity SORHA,[15]; 63 g ai/ha,10
same,Pre-emerge Herbicidal Activity SORHA,[15]; 250 g ai/ha,40
same,Pre-emerge Herbicidal Activity ECHCG,[16]; 63 g ai/ha,10
same,Pre-emerge Herbicidal Activity ECHCG,[16]; 250 g ai/ha,50
same,Pre-emerge Herbicidal Activity CHEAL,[17]; 63 g ai/ha,100
same,Pre-emerge Herbicidal Activity CHEAL,[17]; 250 g ai/ha,100
same,Pre-emerge Herbicidal Activity IPOHE,[18]; 63 g ai/ha,20
same,Pre-emerge Herbicidal Activity IPOHE,[18]; 250 g ai/ha,30
same,Pre-emerge Herbicidal Activity SETVI,[19]; 63 g ai/ha,90
same,Pre-emerge Herbicidal Activity SETVI,[19]; 250 g ai/ha,100
same,Pre-emerge Herbicidal Activity ABUTH,[20]; 63 g ai/ha,50
same,Pre-emerge Herbicidal Activity ABUTH,[20]; 250 g ai/ha,100
same,Pre-emerge Herbicidal Activity DIGSA,[21]; 63 g ai/ha,30
same,Pre-emerge Herbicidal Activity DIGSA,[21]; 250 g ai/ha,70
